According to ChEMBL document CHEMBL1909294, “Translating clinical findings into knowledge in drug safety evaluation--drug induced liver injury prediction system (DILIps)” (PLoS Comput Biol, 2011):

How the values were obtained:
[1] = system: Hepatotoxicity;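 for HepSE Combined Scores: combined hepatic side effect score as listed in the training data of the Drug Induced Liver Injury Prediction System (DILIps)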;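 for HepSE cholecystitis: Cholecystitis-related hepatic side effect score drawn from the DILIps (drug-induced liver injury prediction) training data set; call rule not given here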;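 for HepSE cirrhosis: cirrhosis hepatic side effect score taken from the DILIps (drug-induced liver injury prediction) training set; call rule not given here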;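 for HepSE hepatic necrosis: score of hepatic side effects for hepatic necrosis, drawn from the training data of DILIps, a prediction system for drug-induced liver injury; call rule not given here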;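 for HepSE jaundice: Jaundice-related hepatic side-effect score drawn from the training data of the DILIps (drug-induced liver injury prediction system); call rule not given here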;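 for HepSE liver fatty: hepatic side effect score for fatty liver, taken from the DILIps training set for predicting drug-induced liver injury; call rule not given here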
[2] = system: Hepatotoxicity; remark: listed apart in the source;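 for HepSE Combined Scores: combined hepatic side effect score as listed in the training data of the Drug Induced Liver Injury Prediction System (DILIps)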;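 for HepSE cholecystitis: Cholecystitis-related hepatic side effect score drawn from the DILIps (drug-induced liver injury prediction) training data set; call rule not given here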;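 for HepSE cirrhosis: cirrhosis hepatic side effect score taken from the DILIps (drug-induced liver injury prediction) training set; call rule not given here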;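 for HepSE hepatic necrosis: score of hepatic side effects for hepatic necrosis, drawn from the training data of DILIps, a prediction system for drug-induced liver injury; call rule not given here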;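 for HepSE jaundice: Jaundice-related hepatic side-effect score drawn from the training data of the DILIps (drug-induced liver injury prediction system); call rule not given here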;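 for HepSE liver fatty: hepatic side effect score for fatty liver, taken from the DILIps training set for predicting drug-induced liver injury; call rule not given here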
[3] = system: Hepatotoxicity; remark: listed apart in the source;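 for HepSE Combined Scores: combined hepatic side effect score as listed in the training data of the Drug Induced Liver Injury Prediction System (DILIps)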;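 for HepSE cholecystitis: Cholecystitis-related hepatic side effect score drawn from the DILIps (drug-induced liver injury prediction) training data set; call rule not given here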;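 for HepSE cirrhosis: cirrhosis hepatic side effect score taken from the DILIps (drug-induced liver injury prediction) training set; call rule not given here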;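 for HepSE hepatic necrosis: score of hepatic side effects for hepatic necrosis, drawn from the training data of DILIps, a prediction system for drug-induced liver injury; call rule not given here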;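 for HepSE jaundice: Jaundice-related hepatic side-effect score drawn from the training data of the DILIps (drug-induced liver injury prediction system); call rule not given here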;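 for HepSE liver fatty: hepatic side effect score for fatty liver, taken from the DILIps training set for predicting drug-induced liver injury; call rule not given here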
[4] = system: Hepatotoxicity; remark: listed apart in the source;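 for HepSE Combined Scores: combined hepatic side effect score as listed in the training data of the Drug Induced Liver Injury Prediction System (DILIps)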;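 for HepSE cholecystitis: Cholecystitis-related hepatic side effect score drawn from the DILIps (drug-induced liver injury prediction) training data set; call rule not given here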;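 for HepSE cirrhosis: cirrhosis hepatic side effect score taken from the DILIps (drug-induced liver injury prediction) training set; call rule not given here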;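 for HepSE hepatic necrosis: score of hepatic side effects for hepatic necrosis, drawn from the training data of DILIps, a prediction system for drug-induced liver injury; call rule not given here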;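 for HepSE jaundice: Jaundice-related hepatic side-effect score drawn from the training data of the DILIps (drug-induced liver injury prediction system); call rule not given here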;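 for HepSE liver fatty: hepatic side effect score for fatty liver, taken from the DILIps training set for predicting drug-induced liver injury; call rule not given here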
[5] = system: Hepatotoxicity; remark: listed apart in the source
[6] = system: Hepatotoxicity; remark: listed apart in the source
[7] = system: Hepatotoxicity; remark: listed apart in the source
[8] = system: Hepatotoxicity; remark: listed apart in the source
[9] = system: Hepatotoxicity; remark: listed apart in the source
[10] = system: Hepatotoxicity; remark: listed apart in the source
[11] = system: Hepatotoxicity; remark: listed apart in the source
[12] = system: Hepatotoxicity; remark: listed apart in the source
[13] = system: Hepatotoxicity; remark: listed apart in the source
[14] = system: Hepatotoxicity; remark: listed apart in the source

Molecule | HepSE_cirrhosis [1] | HepSE_Combined Scores [2] | HepSE_liver fatty [3] | HepSE_cholecystitis [4] | HepSE_jaundice [5] | HepSE_hepatic necrosis [6] | HepSE_liver function tests abnormal [7] | HepSE_hepatomegaly [8] | HepSE_hepatic failure [9] | HepSE_elevated liver function tests [10] | HepSE_hepatitis [11] | HepSE_cholelithiasis [12] | HepSE_liver disease [13] | HepSE_bilirubinemia [14]
CC[C@@H](CO)NC(=O)[C@@H]1C=C2c3cccc4c3c(cn4C)C[C@H]2N(C)C1 [METHYSERGIDE] | 0 | 0 | 0 | 0 | 0 | 0 | 0 | 0 | 0 | 0 | 0 | 0 | 0 | 0
CC(C)[C@H]1CC[C@H](C(=O)N[C@H](Cc2ccccc2)C(=O)O)CC1 [NATEGLINIDE] | 0 | 3 | 0 | 0 | 1 | 0 | 0 | 0 | 0 | 0 | 1 | 0 | 1 | 0
OC(c1cc(C(F)(F)F)nc2c(C(F)(F)F)cccc12)C1CCCCN1 (configuration not stated) [MEFLOQUINE] | 0 | 0 | 0 | 0 | 0 | 0 | 0 | 0 | 0 | 0 | 0 | 0 | 0 | 0
CN(C)[C@@H]1C(O)=C(C(N)=O)C(=O)[C@@]2(O)C(O)=C3C(=O)c4c(O)cccc4[C@@](C)(O)[C@H]3[C@H](O)[C@@H]12 [OXYTETRACYCLINE] | 0 | 0 | 0 | 0 | 0 | 0 | 0 | 0 | 0 | 0 | 0 | 0 | 0 | 0
C/C(=C\C(=O)OCCCCCCCCC(=O)O)C[C@@H]1OC[C@H](C[C@@H]2O[C@H]2[C@@H](C)[C@H](C)O)[C@@H](O)[C@H]1O [MUPIROCIN] | 0 | 0 | 0 | 0 | 0 | 0 | 0 | 0 | 0 | 0 | 0 | 0 | 0 | 0
COc1ccc2c(c1)c(CC(=O)O)c(C)n2C(=O)c1ccc(Cl)cc1 [INDOMETHACIN] | 0 | 1 | 0 | 0 | 1 | 0 | 0 | 0 | 0 | 0 | 0 | 0 | 0 | 0
Cc1cnc(NC(=O)C2=C(O)c3ccccc3S(=O)(=O)N2C)s1 [MELOXICAM] | 0 | 4 | 0 | 0 | 1 | 0 | 0 | 0 | 1 | 0 | 1 | 0 | 0 | 1
CC(C)C[C@H]1C(=O)N2CCC[C@H]2[C@]2(O)O[C@](NC(=O)[C@@H]3C=C4c5cccc6[nH]c(Br)c(c56)C[C@H]4N(C)C3)(C(C)C)C(=O)N12 [BROMOCRIPTINE] | 0 | 0 | 0 | 0 | 0 | 0 | 0 | 0 | 0 | 0 | 0 | 0 | 0 | 0
CNC(=O)c1c(I)c(NC(C)=O)c(I)c(C(=O)[O-])c1I.[Na+] [IOTHALAMATE SODIUM] | 0 | 0 | 0 | 0 | 0 | 0 | 0 | 0 | 0 | 0 | 0 | 0 | 0 | 0
CCCOc1ccc(C(=O)OCCN(CC)CC)cc1N [PROPARACAINE] | 0 | 0 | 0 | 0 | 0 | 0 | 0 | 0 | 0 | 0 | 0 | 0 | 0 | 0
C[N+]1(C)CCCC(OC(=O)C(O)(c2ccccc2)c2ccccc2)C1.[Br-] (configuration not stated) [MEPENZOLATE BROMIDE] | 0 | 0 | 0 | 0 | 0 | 0 | 0 | 0 | 0 | 0 | 0 | 0 | 0 | 0
CCCc1nc(C)c2c(=O)[nH]c(-c3cc(S(=O)(=O)N4CCN(CC)CC4)ccc3OCC)nn12 | 0 | 1 | 0 | 0 | 0 | 0 | 1 | 0 | 0 | 0 | 0 | 0 | 0 | 0
BLEOMYCIN | 0 | 0 | 0 | 0 | 0 | 0 | 0 | 0 | 0 | 0 | 0 | 0 | 0 | 0
